From US10618900B2, “5-aromatic alkynyl substituted benzamide compound and preparation method, pharmaceutical composition, and use thereof” (SHANGHAI INSTITUTE OF MATERIA MEDICA, CHINESE ACADEMY OF …, priority 2015, dated 2020)
Like-named read-outs stand apart in the source and are kept apart here.

How the values were obtained:
mGluR5 = mGluR5 (Homo sapiens (Human), UniProt P41594); test: In vitro activity test for mGluR5, HDB Fluo-8 calcium fluorescence detection (FLIPR); assay type: cell-based; conditions: HEK293/mGluR5 cell line
Sequence of mGluR5 (P41594 21-1212): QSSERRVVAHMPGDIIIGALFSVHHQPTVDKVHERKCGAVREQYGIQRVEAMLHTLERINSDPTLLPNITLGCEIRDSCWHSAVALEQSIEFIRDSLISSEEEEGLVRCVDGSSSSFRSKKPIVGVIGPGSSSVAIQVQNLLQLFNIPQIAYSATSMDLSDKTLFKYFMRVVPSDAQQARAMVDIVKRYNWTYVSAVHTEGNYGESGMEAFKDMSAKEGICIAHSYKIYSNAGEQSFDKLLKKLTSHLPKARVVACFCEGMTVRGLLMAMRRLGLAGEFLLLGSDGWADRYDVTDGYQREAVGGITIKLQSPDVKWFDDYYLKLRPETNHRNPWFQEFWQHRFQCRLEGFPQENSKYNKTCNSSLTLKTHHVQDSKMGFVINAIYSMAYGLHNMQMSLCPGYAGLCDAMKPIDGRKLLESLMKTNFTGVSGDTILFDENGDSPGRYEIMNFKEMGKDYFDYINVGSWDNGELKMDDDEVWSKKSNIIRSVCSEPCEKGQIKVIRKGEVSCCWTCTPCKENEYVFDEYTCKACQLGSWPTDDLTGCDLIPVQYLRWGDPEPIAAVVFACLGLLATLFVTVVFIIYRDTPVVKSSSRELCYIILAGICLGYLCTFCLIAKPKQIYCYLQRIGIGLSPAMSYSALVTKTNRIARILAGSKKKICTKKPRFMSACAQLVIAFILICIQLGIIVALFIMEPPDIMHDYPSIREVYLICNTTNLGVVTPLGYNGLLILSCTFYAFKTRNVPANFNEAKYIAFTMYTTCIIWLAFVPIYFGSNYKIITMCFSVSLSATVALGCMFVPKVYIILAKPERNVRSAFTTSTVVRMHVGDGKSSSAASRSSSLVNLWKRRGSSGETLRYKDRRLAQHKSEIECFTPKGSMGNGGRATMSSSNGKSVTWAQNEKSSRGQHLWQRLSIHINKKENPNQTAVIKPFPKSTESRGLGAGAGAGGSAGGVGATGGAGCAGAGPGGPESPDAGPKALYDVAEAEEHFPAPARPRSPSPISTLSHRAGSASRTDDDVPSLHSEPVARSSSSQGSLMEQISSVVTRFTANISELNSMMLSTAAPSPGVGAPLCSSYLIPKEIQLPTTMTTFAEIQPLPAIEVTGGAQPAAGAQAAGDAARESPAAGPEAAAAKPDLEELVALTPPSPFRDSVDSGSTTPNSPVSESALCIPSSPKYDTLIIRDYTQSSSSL
Source text: Experimental instrument: FLIPR Tetra real-time fluorescence imaging analysis system
Experimental method: HDB Fluo-8 calcium fluorescence detection method
Experimental principle: HDB Fluo-8 calcium ion fluorescence detection method is a fast, simple and reliable fluorescence detection method of intracellular calcium concentration changes. The Fluo 8-AM fluorescent dye is an […] derivative of Fluo 8 which can easily penetrate the cell membrane into the cell by culture. The fluorescent dye into the cell will be hydrolyzed by intracellular esterase, the resulting Fluo 8 cannot easily pass through the lipid bimolecular membrane as a polar molecule, and will retain in the cell, and combine with calcium (Ca^2+) to produce fluoresces.
Cells expressing GPCR receptor protein (mGluR5) were first calibrated with a calcium ion sensitive fluorescent probe and then stimulated with the compound. After stimulation, the activation of the receptor lead to the calcium ion mobilization, and the fluorescent probe captures the calcium ion to induce the fluorescence signal. The signal can be read by a fluorescent plate reader. The fluorescent plate reader contains a sampling head for compound addition, thus enabling the change of the fluorescence value of the compound be read in real time. […]

mGluR1 = mGluR1 (Homo sapiens (Human), UniProt Q13255); test: mGluR5/1 selectivity test, HEK293/mGluR1 cell line, Fluo-8 calcium; assay type: cell-based
Sequence of mGluR1 (Q13255 19-1194): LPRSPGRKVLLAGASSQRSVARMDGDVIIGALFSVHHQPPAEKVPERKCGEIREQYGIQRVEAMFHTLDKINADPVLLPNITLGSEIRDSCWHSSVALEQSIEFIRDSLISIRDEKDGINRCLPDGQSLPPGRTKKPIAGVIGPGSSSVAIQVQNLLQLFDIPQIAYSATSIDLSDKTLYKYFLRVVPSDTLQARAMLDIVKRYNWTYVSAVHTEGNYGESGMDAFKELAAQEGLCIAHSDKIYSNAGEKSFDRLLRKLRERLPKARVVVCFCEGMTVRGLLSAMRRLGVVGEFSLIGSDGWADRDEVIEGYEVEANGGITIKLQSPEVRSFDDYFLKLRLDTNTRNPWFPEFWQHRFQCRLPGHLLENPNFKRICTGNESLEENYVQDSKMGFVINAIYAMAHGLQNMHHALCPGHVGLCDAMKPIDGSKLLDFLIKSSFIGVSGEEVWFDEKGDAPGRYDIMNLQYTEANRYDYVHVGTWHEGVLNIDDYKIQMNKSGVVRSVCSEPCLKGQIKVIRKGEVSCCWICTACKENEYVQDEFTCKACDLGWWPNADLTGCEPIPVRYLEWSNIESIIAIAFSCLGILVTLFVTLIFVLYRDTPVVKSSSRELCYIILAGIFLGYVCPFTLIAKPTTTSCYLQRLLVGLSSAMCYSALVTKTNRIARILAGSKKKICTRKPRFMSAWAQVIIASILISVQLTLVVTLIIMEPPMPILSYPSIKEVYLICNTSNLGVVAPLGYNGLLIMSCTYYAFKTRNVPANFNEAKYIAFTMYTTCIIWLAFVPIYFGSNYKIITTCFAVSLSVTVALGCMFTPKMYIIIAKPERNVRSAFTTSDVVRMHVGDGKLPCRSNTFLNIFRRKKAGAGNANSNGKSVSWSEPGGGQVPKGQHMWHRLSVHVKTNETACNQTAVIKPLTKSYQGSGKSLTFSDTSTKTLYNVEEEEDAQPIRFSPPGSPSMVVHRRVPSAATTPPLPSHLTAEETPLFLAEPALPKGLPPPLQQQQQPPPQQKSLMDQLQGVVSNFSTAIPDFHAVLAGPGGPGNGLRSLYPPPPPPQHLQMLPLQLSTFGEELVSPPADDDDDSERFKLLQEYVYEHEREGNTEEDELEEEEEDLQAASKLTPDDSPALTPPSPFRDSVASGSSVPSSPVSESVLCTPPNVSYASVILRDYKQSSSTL
Source text: Experimental material: HEK293/mGluR5 cell line, HEK293/mGluR1 cell line, Fluo-8 calcium ion fluorescent dye, positive control JNJ16259685

[1] = Pharmacokinetic experiment in rats; assay type: in vivo; conditions: rat; for bioavailability: gavage 20 mg/kg vs intravenous 10 mg/kg, read-out: F (absolute bioavailability)
Method: (§1) Six healthy rats weighing 150-200 g were randomly divided into […] (n=3). The rats were given 10 mL/kg ZD043 by gavage and intravenous injection. The dose of gavage was 20 mg/kg, and the dose of intravenous administration was 10 mg/kg. The drug was formulated in DMSO/Tween 80/saline (5:5:90, v/v/v). The rats were fasted for 12 h before testing, and drinked water ad libitum. 2 h after administration, all rats ate together.
Gavage administration: 0, 0.25, 0.5, 1.0, 2.0, 4.0, 6.0, 8.0 and 24 h after administration;
Intravenous administration: 0, 5 min, 0.25, 0.5, 1.0, 2.0, 4.0, 6.0, 8.0 and 24 h after administration;
0.3 mL of blood was collected at the above time points from the rat eye vein venous plexus, placed in heparinized test tube and centrifugated at 11000 rpm for 5 min. Plasma was separated and the sample was frozed in −20° C. refrigerator.

[2] = Determination of brain tissue content in rats; assay type: in vivo; conditions: rat
Method: as §1, with “mL/kg” for “mL/kg ZD043”, “injection, and the” for “injection. The”, “together. […]” for “together.”
A physiological saline solution was added (1:10, weight:volume) and the mixture was sufficiently homogenized to form a homogenate. 100 uL homogenate was taken, and 300 uL dichloromethane:methanol (3:2) solution was added, mixed uniformly through vortex oscillation and centrifugated at 14000 rpm for 10 min. The clear liquor was taken. The sample was dried with nitrogen and stored in the 4° C. refrigerator.

mice [3] = test: Mouse tail suspension experiment; assay type: in vivo; conditions: 20 mg/kg dose, within 6 min, FIG. 1
Source text: Experimental principle: Tail Suspension Test (TST) is a classic method which can quickly evaluate the efficacy of antidepressant drugs, excitement drugs, and sedative drugs. The principle is to use the status that the mouse give up struggle and enter the unique depression status after the tail was suspended and the attempt to escape was failed.
Experimental method: 20-24 g male mice were selected and the site at 2 cm part from the end of the tail was attached to a horizontal stick, so that the animal entered inverted state, and it's head was about 5 cm from the table, and boards were hung on both sides to separate the animal's sight. The immobility time of the administration group and the control group within 6 min were compared.

mice [4] = test: Head twitches test (5-HTP induced); assay type: in vivo; conditions: 20 mg/kg, intraperitoneal, in 6 min, FIG. 2
Source text: Experimental principle: Model Head Thrust Test (HTT) is first raised by Corne et al. in 1963, head twitches syndrome caused by 5-HT receptor excitement may be mediated through the 5-HT2 receptor. The head twitches behavior induced by 5-HTP in mice is more sensitive to antidepressants with different action mechanisms, such as citalopram, fluvoxamine and other 5-HT retake inhibitors, desipramine, maprotiline, nomifensine and other NA retake inhibitors and imipramine acting on both 5-HT and NA system.
Experimental method: 20-24 g male mice were selected. 3 h before the test, 100 mg/kg pargyline was intraperitoneal injected and then intraperitoneal injected with test drugs or saline. 5-HTP (5 mg/kg, ip) was injected 30 min later. After 10 min, the observation was started and the number of mice head twitches in 6 min was recorded. The numbers of the head twitches of experimental group and the saline control group were compared.

Which IC50 (mGluR5) does the source give for Cc1nc(C#Cc2ccc(F)c(C(=O)Nc3cccnc3)c2)cs1 [ZD043] here?
Its IC50 is 5.6 nM.

What about the IC50 (mGluR1; HEK293/mGluR1 cell line) of the same compound?
The IC50 was over 100000 nM.

And the mGluR5/mGluR1 (mGluR1; selectivity ratio of IC50 values)?
The mGluR5/mGluR1 was over 17854.

And the AUC(0-t) ([1]; plasma, intravenous, vein 10 mg/kg, read-out: AUC0-t)?
The AUC(0-t) was 66.4 µg·h/mL.

What about the AUC(0-inf) ([1]; plasma, iv, vein 10 mg/kg) of the same compound?
The AUC(0-inf) was 66.4 µg·h/mL.

What about the Cmax ([1]; plasma, iv, vein 10 mg/kg) of the same compound?
Its Cmax is 75.4 µg/mL.

What about the MRT ([1]; plasma, iv, vein 10 mg/kg) of the same compound?
The MRT was 37.2 min.

And the Tmax ([1]; plasma, iv, vein 10 mg/kg)?
The Tmax was 4.98 min.

And the AUC(0-t) ([1]; plasma, iv, vein 10 mg/kg, read-out: AUC0-t)?
The AUC(0-t) was 66.4 µg·h/mL.

And the bioavailability ([1]; plasma, oral)?
Its bioavailability is 31.6%.

What about the AUC(0-inf) ([1]; plasma, po, gavage 20 mg/kg) of the same compound?
The AUC(0-inf) was 10.5 µg·h/mL.

And the Cmax ([1]; plasma, po, gavage 20 mg/kg)?
Its Cmax is 7.12 µg/mL.

And the MRT ([1]; plasma, po, gavage 20 mg/kg)?
The MRT was 63.6 min.

What about the Tmax ([1]; plasma, po, gavage 20 mg/kg) of the same compound?
Its Tmax is 15 min.

And the bioavailability ([1]; plasma, po)?
The bioavailability was 31.6%.

And the AUC(0-t) ([1]; plasma, po, gavage 20 mg/kg, read-out: AUC0-t)?
Its AUC(0-t) is 10.5 µg·h/mL.

What about the AUC(0-t) ([1]; gavage 20 mg/kg) of the same compound?
The AUC(0-t) was 10.4912 µg·h/mL.

And the t1/2 ([1]; gavage 20 mg/kg)?
The t1/2 was 78 min.

And the half-life ([1]; plasma, iv, 10 mg/kg, vein 10 mg/kg)?
The half-life was 25.8 min.

What about the half-life ([1]; plasma, po, 20 mg/kg, gavage 20 mg/kg) of the same compound?
Its half-life is 78.1 min.

What about the concentration at 0.25 h ([2]; cerebrospinal fluid, sampling time 0.25 h, read-out: Cerebrospinal fluid) of the same compound?
Its concentration at 0.25 h is 0.0255 µg/mL.

And the concentration at 1 h ([2]; cerebrospinal fluid, sampling time 1 h, read-out: Cerebrospinal fluid)?
The concentration at 1 h was 0.0213 µg/mL.

What about the concentration at 3 h ([2]; cerebrospinal fluid, sampling time 3 h, read-out: Cerebrospinal fluid) of the same compound?
Its concentration at 3 h is 0.00799 µg/mL.

What about the concentration at 0.25 h ([2]; plasma, sampling time 0.25 h, read-out: Plasma) of the same compound?
Its concentration at 0.25 h is 1.24 µg/mL.

And the concentration at 1 h ([2]; plasma, sampling time 1 h, read-out: Plasma)?
Its concentration at 1 h is 1.13 µg/mL.

What about the concentration at 3 h ([2]; plasma, sampling time 3 h, read-out: Plasma) of the same compound?
The concentration at 3 h was 0.358 µg/mL.

What about the “drug concentration ratio in the brain and plasma” value ([2]; after administration) of the same compound?
The value was 1/2.

And the B/P ([2]; sampling time 0.25 h)?
The B/P was 1/2.

What about the concentration at 0.25 h ([2]; sampling time 0.25 h, read-out: brain) of the same compound?
Its concentration at 0.25 h is 589 ng/g.

What about the B/P ([2]; sampling time 1 h) of the same compound?
Its B/P is 1/2.

And the Csf/P ([2]; sampling time 1 h)?
Its Csf/P is 1/53.

And the concentration at 1 h ([2]; sampling time 1 h, read-out: brain)?
The concentration at 1 h was 559 ng/g.

And the Csf/P ([2]; sampling time 3 h)?
The Csf/P was 1/45.

What about the concentration at 3 h ([2]; sampling time 3 h, read-out: brain) of the same compound?
The concentration at 3 h was 164 ng/g.

And the “immobility time in the mouse tail suspension test” value (mice [3])?
Its value is “significantly reduced”.

What about the “number of head twitches” value (mice [4]) of the same compound?
The value was “increase”.
